In patent publication US20240130966A1 (Aerovate Therapeutics, Inc., priority 2021, published 2024):
Like-named read-outs stand apart in the source and are kept apart here.

Method: Generator impactor profiles were prepared for ceramic milled powders both before and after conditioning with high humidity for a short time (80-90% RH at room temperature for ˜3 hours).
Again, the exposure consisted of 80%-90% relative humidity at room temperature for about 3 hours.

[1] = Post-exposure, 80%-90% relative humidity at room temperature for about 3 hours (N=9)

FPF of emitted dose (%) [1]: 66.8 +/− 4.3% | FPF of fill (%) [1]: 48.1 +/− 3.0% | FPF of emitted dose (%) (Pre-exposure to humidity (N=7)): 52.3 +/− 6.3% | FPF of fill (%) (Pre-exposure to humidity (N=7)): 36.2 +/− 3.5% | Increase in fine particle dose (stage 3-MOC levels) after humidity conditioning (ceramic milled powders, 80-90% RH at room temperature for ~3 hours, FIG. 1): 10-20 % of the capsule fill dose | Delivery performance after desorption compared to post-humidification powders (humidity for 12+ hours, then desorbed at <5% RH for about 24 hours): no change in delivery performance
Substance: Imatinib
